The source made the active and inactive calls. The calls are words filed in the database; no cut-off is given here.
How the values were obtained:
[1] = Tmax in rat at 25 mg/kg, po; format: ADME, organism-based; conditions: in vivo
[2] = Cmax in rat at 25 mg/kg, po; format: ADME, organism-based; parameters: dose 25 mg/kg, route oral; conditions: in vivo
[3] = AUC in rat at 25 mg/kg, po; format: ADME, organism-based; conditions: in vivo
[4] = Half life in rat at 25 mg/kg, po; format: ADME, organism-based; conditions: in vivo
[5] = Oral bioavailability in rat at 25 mg/kg; format: ADME, organism-based; conditions: in vivo
PANC-1 [6] = assay: Antitumor activity against human PANC1 cells xenografted in po dosed non-obese diabetic […] SCID mouse assessed as tumor growth inhibition administered daily for 4 weeks; format: functional, organism-based
PANC-1 [7] = assay: Antitumor activity against human PANC1 cells xenografted in non-obese diabetic […] SCID mouse assessed as tumor growth inhibition at 50 mg/kg, po administered daily measured after 3 weeks in presence of gemcitabine; format: functional, organism-based
Mus musculus [8] = assay: Toxicity in non-obese diabetic […] SCID mouse xenografted with human PANC1 cells assessed as change in body weight at 25 to 100 mg/kg, po administered daily for 4 weeks; format: organism-based, PANC-1; conditions: in vivo, 672 h
Mus musculus [9] = assay: Toxicity in non-obese diabetic […] SCID mouse xenografted with human PANC1 cells assessed as change in body weight at 50 mg/kg, po administered daily for 4 weeks in presence of gemcitabine; format: organism-based, PANC-1; conditions: in vivo, 672 h
PANC-1 [10] = assay: Antitumor activity against human PANC1 cells xenografted in non-obese diabetic […] SCID mouse assessed as tumor growth inhibition at 40 mg/kg, iv administered 2 times per week for 4 weeks; format: functional, organism-based
Mus musculus [11] = assay: Toxicity in non-obese diabetic […] SCID mouse xenografted with human PANC1 cells assessed as change in body weight at 40 mg/kg, iv administered 2 times per week for 4 weeks; format: organism-based, PANC-1; conditions: in vivo, 672 h
[12] = Oral bioavailability in Sprague-Dawley rat at 25 mg/kg; format: ADME, organism-based; conditions: in vivo
[13] = Dissociation constant, pKa of the compound; format: physicochemical
[14] = Tmax in rat at 0.5 mg/kg, iv; format: ADME, organism-based; conditions: in vivo
[15] = AUC in rat at 0.5 mg/kg, iv; format: ADME, organism-based; conditions: in vivo
[16] = Half life in rat at 0.5 mg/kg, iv; format: ADME, organism-based; conditions: in vivo
Mus musculus [17] = assay: Toxicity in non-obese diabetic […] SCID mouse xenografted with human PANC1 cells assessed as change in body weight at 50 mg/kg, po administered daily for 4 weeks; format: organism-based, PANC-1; conditions: in vivo, 672 h
in vivo = conditions: rat, iv, 0.5 mg/kg
Description: Cmax in rat at 0.5 mg/kg, iv

## Cc1oc(=O)oc1COC(=O)[C@]12CC[C@@H](C)[C@H](C)[C@H]1C1=CC[C@@H]3[C@@]4(C)CC[C@H](O)C(C)(C)[C@@H]4CC[C@@]3(C)[C@]1(C)CC2
[1]
  Tmax: 87.6 min
[2]
  Cmax: 30.3 ng/mL
[3]
  AUC: 132 ng·h/mL
[4]
  half-life: 283 min
[5]
  bioavailability: 2.3%
PANC-1 [6]
  TGI: Dose-dependent effect
PANC-1 [7]
  TGI: Active
Mus musculus [8]
  Activity: Non-Toxic
Mus musculus [9]
  Activity: Non-Toxic

## Nc1ccn([C@@H]2O[C@H](CO)[C@@H](O)C2(F)F)c(=O)n1 [GEMCITABINE]
PANC-1 [10]
  TGI: Active
Mus musculus [11]
  Activity: Non-Toxic

## CC1(C)CC[C@]2(C(=O)O)CC[C@]3(C)C(=CC[C@@H]4[C@@]5(C)CC[C@H](O)C(C)(C)[C@@H]5CC[C@]43C)[C@@H]2C1 [OLEANOLIC_ACID]
[12]
  bioavailability: 0.7%

## C[C@H]1[C@H](C)CC[C@]2(C(=O)O)CC[C@]3(C)C(=CC[C@@H]4[C@@]5(C)CC[C@H](O)C(C)(C)[C@@H]5CC[C@]43C)[C@H]12 [URSOLIC ACID]
[13]
  pKa: 5.29
[14]
  Tmax: 4.8 min
[1]
  Tmax: 15 min
[2]
  Cmax: 1.9 ng/mL
[15]
  AUC: 114 ng·h/mL
[3]
  AUC: 0.6 ng·h/mL
[16]
  half-life: 93 min
[4]
  half-life: 18 min
[5]
  bioavailability: < 0.01%
Mus musculus [17]
  Activity: Non-Toxic
In vivo
  Cmax: 378 ng/mL

Reference: ChEMBL document CHEMBL3864152, “Discovery of ursolic acid prodrug (NX-201): Pharmacokinetics and in vivo antitumor effects in PANC-1 pancreatic cancer” (Bioorg Med Chem Lett, 2016)
